Assay results as given in paper PMC7280082 (Acta Pharmaceutica Sinica. B, 2019).

Key:
HIV-2 strain (ROD) = experiment: Anti-HIV-2; type: cell-based; details: for EC50: Human immunodeficiency virus 2, MT4, read-out: EC50 ROD; for SI ROD: ratio of CC50/EC50
WT HIV-1 RT = WT HIV-1 RT (Human immunodeficiency virus type 1 group M subtype B, UniProt P03366); experiment: Recombinant HIV-1 RT inhibitory assay; type: biochemical
WT HIV-1 (IIIB) = experiment: microbe, parasite or virus in culture; type: cell-based; details: for EC50: Human immunodeficiency virus 1, IIIB, MT4, read-out: EC50 IIIB; for SI IIIB: ratio of CC50/EC50
[1] = test system: HIV-1 RES056 (K103N + Y181C) double-mutant strain; experiment: microbe, parasite or virus in culture; type: cell-based; details: for SI RES056: CC50/EC50; for EC50: Human immunodeficiency virus 1, MT4, read-out: EC50 RES056; for RF RES056: ratio of EC50 (resistant viral strain)/EC50 (wild-type viral strain)
[2] = test system: HIV-1 E138K mutant strain; experiment: microbe, parasite or virus in culture; type: cell-based; details: for SI E138K: CC50/EC50; for EC50: Human immunodeficiency virus 1, MT4, read-out: EC50 E138K; for RF E138K: ratio of EC50 (resistant viral strain)/EC50 (wild-type viral strain)
[3] = test system: HIV-1 F227L + V106A double-mutant strain; experiment: microbe, parasite or virus in culture; type: cell-based; details: for SI F227L + V106A: CC50/EC50; for EC50: Human immunodeficiency virus 1, MT4, read-out: EC50 F227L + V106A; for RF F227L + V106A: ratio of EC50 (resistant viral strain)/EC50 (wild-type viral strain)
[4] = test system: HIV-1 Y188L mutant strain; experiment: microbe, parasite or virus in culture; type: cell-based; details: for SI Y188L: CC50/EC50; for EC50: Human immunodeficiency virus 1, MT4, read-out: EC50 Y188L; for RF Y188L: ratio of EC50 (resistant viral strain)/EC50 (wild-type viral strain)
[5] = test system: HIV-1 K103N mutant strain; experiment: microbe, parasite or virus in culture; type: cell-based; details: for SI K103N: CC50/EC50; for EC50: Human immunodeficiency virus 1, MT4, read-out: EC50 K103N; for RF K103N: ratio of EC50 (resistant viral strain)/EC50 (wild-type viral strain)
[6] = test system: HIV-1 L100I mutant strain; experiment: microbe, parasite or virus in culture; type: cell-based; details: for SI L100I: CC50/EC50; for EC50: Human immunodeficiency virus 1, MT4, read-out: EC50 L100I; for RF L100I: ratio of EC50 (resistant viral strain)/EC50 (wild-type viral strain)
[7] = Cytotoxicity in mock-infected MT-4 cell cultures, MTT method; details: human, mock-infected MT-4 cells
[8] = test system: HIV-1 Y181C mutant strain; experiment: microbe, parasite or virus in culture; type: cell-based; details: for SI Y181C: CC50/EC50; for EC50: Human immunodeficiency virus 1, MT4, read-out: EC50 Y181C; for RF Y181C: ratio of EC50 (resistant viral strain)/EC50 (wild-type viral strain)

| Structure (SMILES) | EC50 (HIV-2 strain (ROD)) | IC50 (WT HIV-1 RT) | EC50 (WT HIV-1 (IIIB)) | SI IIIB (WT HIV-1 (IIIB)) | SI RES056 [1] | EC50 [1] | RF RES056 [1] | SI E138K [2] | EC50 [2] | RF E138K [2] | SI F227L + V106A [3] | EC50 [3] | RF F227L + V106A [3] | SI Y188L [4] | EC50 [4] | RF Y188L [4] | SI K103N [5] | EC50 [5] | RF K103N [5] | SI L100I [6] | further results |
| --- | --- | --- | --- | --- | --- | --- | --- | --- | --- | --- | --- | --- | --- | --- | --- | --- | --- | --- | --- | --- | --- |
| Cc1cc(-c2ccoc2)cc(C)c1Oc1nc(NC2CCN(Cc3ccc(S(N)(=O)=O)cc3)CC2)nc2ccsc12 [Compound 13, 4-((4-((4-(4-(Furan-3-yl)-2,6-dimethylphenoxy)thieno[3,2-d]pyrimidin-2-yl)amino)piperidin-1-yl)methyl)benzenesulfonamide] | 6800 ± 1220 nM | 265 ± 59 nM | 63.6 ± 11.4 nM | 246 | 13 | 1190 ± 184 nM | 18.8 | 81 | 193 ± 14.8 nM | 3.0 | 44 | 358 ± 18.4 nM | 5.6 | 117 | 133 ± 3.35 nM | 2.1 | 249 | 62.9 ± 10.4 nM | 1.0 | 84 | SI ROD (HIV-2 strain (ROD)): 2; EC50 [6]: 186 ± 29.4 nM; RF L100I [6]: 2.9; CC50 at 5 days [7]: 15600 ± 4970 nM; SI Y181C [8]: 79; EC50 [8]: 197 ± 16.1 nM; RF Y181C [8]: 3.1 |
| Cc1cc(-c2ccoc2)cc(C)c1Oc1nc(NC2CCN(Cc3ccc(C(N)=O)cc3)CC2)nc2ccsc12 [Compound 14, 4-((4-((4-(4-(Furan-3-yl)-2,6-dimethylphenoxy)thieno[3,2-d]pyrimidin-2-yl)amino)piperidin-1-yl)methyl)benzamide] | 3180 ± 832 nM | 249 ± 1 nM | 57.5 ± 12.7 nM | 275 | 19 | 813 ± 177 nM | 14.1 | 89 | 177 ± 2.93 nM | 3.1 | 30 | 525 ± 21.1 nM | 9.1 | 71 | 222 ± 30.5 nM | 3.9 | 212 | 74.8 ± 2.93 nM | 1.3 | 60 | SI ROD (HIV-2 strain (ROD)): 5; EC50 [6]: 262 ± 75 nM; RF L100I [6]: 4.6; CC50 at 5 days [7]: 15800 ± 7040 nM; SI Y181C [8]: 88; EC50 [8]: 180 ± 33.4 nM; RF Y181C [8]: 3.1 |
| Cc1cc(-c2cccs2)cc(C)c1Oc1nc(NC2CCN(Cc3ccc(S(N)(=O)=O)cc3)CC2)nc2ccsc12 [Compound 15, 4-((4-((4-(2,6-Dimethyl-4-(thiophen-2-yl)phenoxy)thieno[3,2-d]pyrimidin-2-yl)amino)piperidin-1-yl)methyl)benzenesulfonamide] | 5110 ± 1710 nM | 227 ± 46 nM | 49.5 ± 14.8 nM | 435 | 22 | 999 ± 151 nM | 20.2 | 173 | 124 ± 88.7 nM | 2.5 | 380 | 56.7 ± 16.2 nM | 1.1 | 203 | 106 ± 43.6 nM | 2.1 | 932 | 23.1 ± 2.56 nM | 0.5 | 220 | SI ROD (HIV-2 strain (ROD)): 4; EC50 [6]: 97.9 ± 62.4 nM; RF L100I [6]: 2.0; CC50 at 5 days [7]: 21500 ± 890 nM; SI Y181C [8]: 235; EC50 [8]: 91.7 ± 18.2 nM; RF Y181C [8]: 1.9 |
| Cc1cc(-c2cccs2)cc(C)c1Oc1nc(NC2CCN(Cc3ccc(C(N)=O)cc3)CC2)nc2ccsc12 [Compound 16, 4-((4-((4-(2,6-Dimethyl-4-(thiophen-2-yl)phenoxy)thieno[3,2-d]pyrimidin-2-yl)amino)piperidin-1-yl)methyl)benzamide] | > 20500 nM | 595 ± 44 nM | 203 ± 51.5 nM | ≥101 | ≥ 2 | 10000 nM | 49.2 | ≥ 31 | 662 ± 58.4 nM | 3.3 | ≥ 19 | 1090 ± 226 nM | 5.4 | ≥ 33 | 619 ± 3.59 nM | 3.0 | ≥ 111 | 184 ± 90.2 nM | 0.9 | ≥ 28 | EC50 [6]: 731 ± 274 nM; RF L100I [6]: 3.6; CC50 at 5 days [7]: ≥ 20500 nM; SI Y181C [8]: ≥ 28; EC50 [8]: 731 ± 198 nM; RF Y181C [8]: 3.6 |
| Cc1cc(-c2ccsc2)cc(C)c1Oc1nc(NC2CCN(Cc3ccc(S(N)(=O)=O)cc3)CC2)nc2ccsc12 [Compound 17, 4-((4-((4-(2,6-Dimethyl-4-(thiophen-3-yl)phenoxy)thieno[3,2-d]pyrimidin-2-yl)amino)piperidin-1-yl)methyl)benzenesulfonamide] | 4800 ± 916 nM | 167 ± 14 nM | 31.6 ± 17.7 nM | 489 | 17 | 932 ± 88.4 nM | 29.5 | 295 | 52.5 ± 11.3 nM | 1.7 | 272 | 56.8 ± 3.85 nM | 1.8 | 249 | 62 ± 5.83 nM | 2.0 | 865 | 17.9 ± 1.51 nM | 0.6 | 203 | SI ROD (HIV-2 strain (ROD)): 3; EC50 [6]: 76 ± 17.2 nM; RF L100I [6]: 2.4; CC50 at 5 days [7]: 15400 ± 5860 nM; SI Y181C [8]: 245; EC50 [8]: 63.2 ± 16.1 nM; RF Y181C [8]: 2.0 |
| Cc1cc(-c2ccccc2)cc(C)c1Oc1nc(NC2CCN(Cc3ccc(S(N)(=O)=O)cc3)CC2)nc2ccsc12 [Compound 19, 4-((4-((4-((3,5-Dimethyl-[1,1′-biphenyl]-4-yl)oxy)thieno[3,2-d]pyrimidin-2-yl)amino)piperidin-1-yl)methyl)benzenesulfonamide] | 6140 ± 272 nM | 164 ± 5 nM | 43.8 ± 15.6 nM | 487 | 12 | 1710 ± 473 nM | 39.1 | 200 | 107 ± 18.8 nM | 2.4 | 106 | 200 ± 10.4 nM | 4.6 | 176 | 121 ± 9.19 nM | 2.8 | 356 | 59.9 ± 6.01 nM | 1.4 | 62 | SI ROD (HIV-2 strain (ROD)): 3; EC50 [6]: 344 ± 117 nM; RF L100I [6]: 7.9; CC50 at 5 days [7]: 21300 ± 1260 nM; SI Y181C [8]: 127; EC50 [8]: 167 ± 24.5 nM; RF Y181C [8]: 3.8 |
